Here are results for 2 compounds from paper PMC2956624, “Context-Dependent Cell Cycle Checkpoint Abrogation by a Novel Kinase Inhibitor” (PLoS ONE, 2010).

The test system of the assay is HT29 cells. Briefly: Flow cytometry cell cycle profiles, HT29. The class given is cell-based, human. The note with it: for abrogation of DNA damage induced cell cycle arrest: DNA damaging agent 16 hours, then PF-477736 (400 nM) or VX680 (400 nM) 48 hours. Here is the method: Fixed cells were analyzed by flow cytometry.
All cells were harvested, fixed in 70% ethanol and stained with propidium iodide/RNase A. Cell cycle profiles were examined by flow cytometry using a FACSArray cytometer (BD) and FACSDiva software (BD).
In general terms: In flow cytometry, cells or beads pass a laser one at a time.

Consider `Cn1cc(-c2[nH]c3cc(NC(=O)[C@H](N)C4CCCCC4)cc4c3c2C=NNC4=O)cn1` [PF-477736], for which the “abrogation of DNA damage induced cell cycle arrest” value was “abrogated DNA damage induced cell cycle arrest”.
`Cc1cc(Nc2cc(N3CCN(C)CC3)nc(Sc3ccc(NC(=O)C4CC4)cc3)n2)[nH]n1` [VX680]: the “abrogation of DNA damage induced cell cycle arrest” value is on record as “unable to override the DNA damage induced arrest”. The “cells remaining arrested in G2 or M” value (100 nM paclitaxel 18 hours, then 24 hours with 200 nM VER-150548 or 400 nM VX680 (DMSO 65.4%)) came to 28.5%. For the same compound, where the note is “unperturbed cells, 8 to 48 hours”, the “cell cycle effect as single agent” value was “caused G2/M arrest at early time points and subsequent reduplication following extended incubation”.
